Tests used:
SARS-CoV-2 = assay: Direct injection of Sx mixture or its components into virus suspension, Vero E6 plaque assay; assay type: cell-based; details: for activity of the component alone: direct injection (FIGS. 20 and 21)
[1] = system: SARS-CoV-2 (USA-WA1/2020 strain); assay: Direct injection into viral suspension, plaque assay on Vero E6 cells; assay type: cell-based; details: for reduction of viral burden by individual components: 1.4 and 3.9 µls propionic acid, 0.6 and 1.1 µls isoamyl hexanoates; for decline in viral burden: 360 mins post-addition
[2] = target: RBD of the SARS-CoV-2 spike protein to ACE2 (Severe acute respiratory syndrome coronavirus 2, UniProt P0DTC2); details: cited from earlier work
[3] = propionic acid alone, direct injection

CCC(=O)O [propionic acid]
reduction in activity of the virus (SARS-CoV-2; acid alone at 3.9 µL): about 0.5 log | activity of the component alone (SARS-CoV-2): only has marginal biological activity | time to complete inactivation of the virus (SARS-CoV-2; propionic acid alone at 7.7 µL): 220 min | volume of acid necessary for relative immediate inactivation of the virus (SARS-CoV-2; [3]): at least 15.4 µL | volume of acid necessary to get any appreciable activity (SARS-CoV-2; [3]): up to 7.7 µL | reduction of viral burden by individual components [1]: minimal reduction of viral burden | decline in viral burden ([1]; 1.4 µls alone): 0.29 log10 PFU/ml | decline in viral burden ([1]; 3.9 µls alone): 0.98 log10 PFU/ml | time to undetectable levels of virus ([1]; 7.7 µl alone, direct injection): 240 min | time to undetectable viral burden ([1]; 15.4 µls alone, direct injection): 15 min | EC50 volume over the entire study ([1]; direct injection, entire 360 min study (AUC of viral burden-time), 37° C.): 6.2 µls

GluGluLeuGlu
reduction of the binding affinity of RBD to ACE2 ([2]; addition of peptide to SARS-CoV-2): 34% | reduction of virus activity ([2]; peptide added to the virus): 34%

isoamyl hexanoates
activity of the component alone (SARS-CoV-2): no lasting activity | reduction in activity of the virus (SARS-CoV-2; esters alone (1.1 µL), at about 100 min): ~1 log | reduction in virus activity (SARS-CoV-2; esters alone, highest concentration of 4.6 µL, over 300 minutes): 1 order of magnitude | general reduction in virus activity (SARS-CoV-2; esters alone, within about 30 min, over the range of concentrations tested): ~1 log | reduction of viral burden by individual components [1]: minimal reduction of viral burden | suppression of SARS-CoV-2 replication, component alone ([1]; direct injection, all treatment arms (FIG. 7B)): substantially less effective

Reference: patent publication US20230263762A1, “COMPOSITION AND METHOD FOR TREATING INFECTIONS” (priority 2020, published 2023)
